According to ChEMBL document CHEMBL1135658, “Structure-activity studies of the melanocortin peptides: discovery of potent and selective affinity antagonists for the hMC3 and hMC4 receptors” (J Med Chem, 2002):
Positions of bridges follow the written chain, without caps; N, C: chain ends. Non-standard residues stand in square brackets, D forms with d. Residues, ends and D or L forms follow the SMILES beside them. d2Nal = N[C@H](Cc1ccc2ccccc2c1)C(=O)O

How the values were obtained:
[1] = target: Melanocortin receptor 3 (Homo sapiens, UniProt P41968); assay: Binding affinity for human Melanocortin-3 receptor
Sequence of Melanocortin receptor 3 (P41968 whole entry): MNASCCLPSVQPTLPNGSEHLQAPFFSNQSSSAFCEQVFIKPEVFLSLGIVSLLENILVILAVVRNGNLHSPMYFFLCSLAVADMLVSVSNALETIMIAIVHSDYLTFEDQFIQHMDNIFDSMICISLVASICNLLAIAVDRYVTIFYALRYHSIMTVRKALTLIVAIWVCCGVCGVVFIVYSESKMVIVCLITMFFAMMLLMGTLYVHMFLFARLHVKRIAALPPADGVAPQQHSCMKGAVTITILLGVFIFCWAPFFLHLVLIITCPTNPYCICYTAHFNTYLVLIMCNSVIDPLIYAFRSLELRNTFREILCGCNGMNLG

[2] = target: T1, Melanocortin receptor 4 (Homo sapiens, UniProt P32245); assay: Binding affinity against human Melanocortin-4 receptor
T1 sequence (P32245 whole entry): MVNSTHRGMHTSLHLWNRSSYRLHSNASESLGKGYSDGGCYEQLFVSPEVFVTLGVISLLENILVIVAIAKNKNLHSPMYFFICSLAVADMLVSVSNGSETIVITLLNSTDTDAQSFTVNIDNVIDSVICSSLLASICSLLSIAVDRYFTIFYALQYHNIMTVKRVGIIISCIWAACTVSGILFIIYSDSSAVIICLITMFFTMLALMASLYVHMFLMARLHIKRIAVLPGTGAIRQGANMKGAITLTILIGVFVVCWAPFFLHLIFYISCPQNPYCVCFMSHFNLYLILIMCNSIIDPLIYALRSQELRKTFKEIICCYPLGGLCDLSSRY

[3] = target: Melanocortin receptor 5 (Homo sapiens, UniProt P33032); assay: Binding affinity against human Melanocortin 5 receptor
Sequence of Melanocortin receptor 5 (P33032 whole entry): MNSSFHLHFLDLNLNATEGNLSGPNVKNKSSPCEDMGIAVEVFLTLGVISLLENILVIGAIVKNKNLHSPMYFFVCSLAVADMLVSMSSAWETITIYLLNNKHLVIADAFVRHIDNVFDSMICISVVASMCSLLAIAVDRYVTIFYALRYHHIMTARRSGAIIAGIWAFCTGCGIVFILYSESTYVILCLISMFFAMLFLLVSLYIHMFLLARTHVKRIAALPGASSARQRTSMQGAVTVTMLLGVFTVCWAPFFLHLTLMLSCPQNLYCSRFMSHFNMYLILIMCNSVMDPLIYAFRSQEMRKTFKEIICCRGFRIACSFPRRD

[4] = target: T1, Melanocortin receptor 4; assay: Agonist activity against human Melanocortin-4 receptor; assay type: functional

Structure (SMILES)	IC50 [1] [nM]	IC50 [2] [nM]	EC50 [3] [nM]	IC50 [3] [nM]	Activity [4] [%]
N=C(N)NCCC[C@@H]1NC(=O)[C@@H](Cc2cccc3ccccc23)NC(=O)CCC(=O)NCCCC[C@@H](C(N)=O)NC(=O)[C@H](Cc2c[nH]c3ccccc23)NC1=O	150	0.5	530	540	–
CC(=O)N[C@H]1CSSC[C@@H](C(=O)N2CCC[C@H]2C(=O)N2CCC[C@H]2C(=O)N[C@@H](CCCCN)C(=O)N[C@@H](CC(=O)O)C(N)=O)NC(=O)CNC(=O)[C@H](Cc2c[nH]c3ccccc23)NC(=O)[C@H](CCCNC(=N)N)NC(=O)[C@@H](Cc2ccc3ccccc3c2)NC(=O)[C@H](Cc2c[nH]cn2)NC(=O)[C@H](CCC(=O)O)NC1=O (Ac-CEH[d2Nal]RWGCPPKD-NH2; disulfide 1-8)	25	1.5	–	16	–
CC(=O)[C@@H]1CSSC[C@@H](C(=O)N2CCC[C@H]2C(=O)CN2CCC[C@H]2C(=O)CN[C@@H](CCCCN)C(=O)CN[C@@H](CC(=O)O)C(N)=O)NC(=O)CNC(=O)[C@@H](Cc2c[nH]c3ccccc23)NC(=O)[C@H](CCCN=C(N)N)NC(=O)[C@H](Cc2ccc3ccccc3c2)NC(=O)[C@H](Cc2c[nH]cn2)NC(=O)[C@@H](CCC(=O)O)NC1=O	–	–	–	–	0
